Read-outs that look alike come from different tables or passages of the source.
Target: GST-Bcl-2 (Homo sapiens (Human), UniProt P10415)
Test: Time Resolved-Fluorescence Resonance Energy Transfer (TR-FRET) Bcl-2 binding assay
Summary of the method: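 Ki values derived from TR-FRET displacement of F-Bak peptide from GST-Bcl-2, detected with Tb-labelled anti-GST antibody (ex 340, em 520/495 nm). Compound dilution series started at 50 μM (2× starting concentration); room-temperature incubation 3 hours.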

[1] = GST-Bcl-2 1 nM, F-Bak peptide probe 100 nM, Tb-anti-GST antibody 1 nM, Ki by Wang's equation

Sequence of GST-Bcl-2 (P10415 whole entry): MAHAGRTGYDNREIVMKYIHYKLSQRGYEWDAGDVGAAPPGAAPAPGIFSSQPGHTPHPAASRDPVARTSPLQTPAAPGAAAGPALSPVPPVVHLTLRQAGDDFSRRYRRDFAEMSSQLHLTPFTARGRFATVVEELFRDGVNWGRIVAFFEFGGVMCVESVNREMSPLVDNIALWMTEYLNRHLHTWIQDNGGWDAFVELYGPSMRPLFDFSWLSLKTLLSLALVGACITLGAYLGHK

Row | Compound | Ki [1] | Ki
1 | CC1(C)CCC(CN2CCN(c3ccc(C(=O)NS(=O)(=O)c4ccc(NCC5CN(C6CC6)CCO5)c([N+](=O)[O-])c4)c(Oc4cnc(N)c(Cl)c4)c3)CC2)=C(c2ccc(Cl)cc2)C1 (stereo not drawn) [Example 369, 2-[(6-amino-5-chloropyridin-3-yl)oxy]-4-(4-{[2-(4-chlorophenyl)-4,4-dimethylcyclohex-1-en-1-yl]methyl}piperazin-1-yl)-N-[(4-{[(4-cyclopropylmorpholin-2-yl)methyl]amino}-3-nitrophenyl)sulfonyl]benzamide] | 0.014 nM | 
2 | CC1(C)CCC(CN2CCN(c3ccc(C(=O)NS(=O)(=O)c4ccc(N[C@@H]5CCN(C6CC6)C5)c([N+](=O)[O-])c4)c(Oc4cnc(N)c(Cl)c4)c3)CC2)=C(c2ccc(Cl)cc2)C1 [Example 370, 2-[(6-amino-5-chloropyridin-3-yl)oxy]-4-(4-{[2-(4-chlorophenyl)-4,4-dimethylcyclohex-1-en-1-yl]methyl}piperazin-1-yl)-N-[(4-{[(3R)-1-cyclopropylpyrrolidin-3-yl]amino}-3-nitrophenyl)sulfonyl]benzamide] | < 0.01 nM | 
3 | CC1(C)CCC(CN2CCN(c3ccc(C(=O)NS(=O)(=O)c4ccc(OCC5(F)CCN(C(CF)CF)CC5)c([N+](=O)[O-])c4)c(Oc4cnc(N)c(Cl)c4)c3)CC2)=C(c2ccc(Cl)cc2)C1 [Example 371, 2-[(6-amino-5-chloropyridin-3-yl)oxy]-4-(4-{[2-(4-chlorophenyl)-4,4-dimethylcyclohex-1-en-1-yl]methyl}piperazin-1-yl)-N-{[4-({4-fluoro-1-[2-fluoro-1-(fluoromethyl)ethyl]piperidin-4-yl}methoxy)-3-nitrophenyl]sulfonyl}benzamide] | < 0.01 nM | 
4 | CC1(C)CCC(CN2CCN(c3ccc(C(=O)NS(=O)(=O)c4ccc(NCC5CCOCC5)c([N+](=O)[O-])c4)c(Oc4cc(Br)nc(NC(=O)OC(C)(C)C)c4)c3)CC2)=C(c2ccc(Cl)cc2)C1 [Example 372, tert-butyl 6-bromo-4-(5-(4-{[2-(4-chlorophenyl)-4,4-dimethylcyclohex-1-en-1-yl]methyl}piperazin-1-yl)-2-{[({3-nitro-4-[(tetrahydro-2H-pyran-4-ylmethyl)amino]phenyl}sulfonyl)amino]carbonyl}phenoxy)pyridin-2-ylcarbamate] | 15 nM | 
5 | CC1(C)CCC(CN2CCN(c3ccc(C(=O)NS(=O)(=O)c4ccc(NCC5CCOCC5)c([N+](=O)[O-])c4)c(Oc4cc(NC(=O)OC(C)(C)C)nc(NC(=O)OC(C)(C)C)c4)c3)CC2)=C(c2ccc(Cl)cc2)C1 [Example 373, 4-(4-{[2-(4-chlorophenyl)-4,4-dimethylcyclohex-1-en-1-yl]methyl}piperazin-1-yl)-2-[(2,6-Bis-tert-butoxycarbonylamino-pyridin-4-yl)oxy]-N-({3-nitro-4-[(tetrahydro-2H-pyran-4-ylmethyl)amino]phenyl}sulfonyl)benzamide] | 1200 nM | 
6 | CC1(C)CCC(CN2CCN(c3ccc(C(=O)NS(=O)(=O)c4ccc(NCC5CCOCC5)c([N+](=O)[O-])c4)c(Oc4ccc(NC5CC5)nc4)c3)CC2)=C(c2ccc(Cl)cc2)C1 [Example 374, 4-(4-{[2-(4-chlorophenyl)-4,4-dimethylcyclohex-1-en-1-yl]methyl}piperazin-1-yl)-2-{[6-(cyclopropylamino)pyridin-3-yl]oxy}-N-({3-nitro-4-[(tetrahydro-2H-pyran-4-ylmethyl)amino]phenyl}sulfonyl)benzamide] | 5.34 nM | 
7 | CO[C@H]1CC[C@H](CNc2ccc(S(=O)(=O)NC(=O)c3ccc(N4CCN(CC5=C(c6ccc(Cl)cc6)CC(C)(C)CC5)CC4)cc3Oc3ccc(NCC(F)F)nc3)cc2[N+](=O)[O-])CC1 [Example 375, Trans-4-(4-{[2-(4-chlorophenyl)-4,4-dimethylcyclohex-1-en-1-yl]methyl}piperazin-1-yl)-2-({6-[(2,2-difluoroethyl)amino]pyridin-3-yl}oxy)-N-[(4-{[(4-methoxycyclohexyl)methyl]amino}-3-nitrophenyl)sulfonyl]benzamide] |  | 328 nM
8 | CC1(C)CCC(CN2CCN(c3ccc(C(=O)NS(=O)(=O)c4ccc(NCC5CCOCC5)c([N+](=O)[O-])c4)c(Oc4ccc(NCC(F)F)nc4)c3)CC2)=C(c2ccc(Cl)cc2)C1 [Example 376, 4-(4-{[2-(4-chlorophenyl)-4,4-dimethylcyclohex-1-en-1-yl]methyl}piperazin-1-yl)-2-({6-[(2,2-difluoroethyl)amino]pyridin-3-yl}oxy)-N-({3-nitro-4-[(tetrahydro-2H-pyran-4-ylmethyl)amino]phenyl}sulfonyl)benzamide] | 57.7 nM | 
9 | CNc1ncc(Oc2cc(N3CCN(CC4=C(c5ccc(Cl)cc5)CC(C)(C)CC4)CC3)ccc2C(=O)NS(=O)(=O)c2ccc(NCC3CCOCC3)c([N+](=O)[O-])c2)cc1Cl [Example 377, 2-{[5-chloro-6-(methylamino)pyridin-3-yl]oxy}-4-(4-{[2-(4-chlorophenyl)-4,4-dimethylcyclohex-1-en-1-yl]methyl}piperazin-1-yl)-N-({3-nitro-4-[(tetrahydro-2H-pyran-4-ylmethyl)amino]phenyl}sulfonyl)benzamide] | 2.32 nM | 
10 | CC1(C)CCC(CN2CCN(c3ccc(C(=O)NS(=O)(=O)c4ccc(NCC5CN(C(CF)CF)CCO5)c([N+](=O)[O-])c4)c(Oc4cnc(N)c(Cl)c4)c3)CC2)=C(c2ccc(Cl)cc2)C1 (stereo not drawn) [Example 378, 2-[(6-amino-5-chloropyridin-3-yl)oxy]-4-(4-{[2-(4-chlorophenyl)-4,4-dimethylcyclohex-1-en-1-yl]methyl}piperazin-1-yl)-N-({4-[({4-[2-fluoro-1-(fluoromethyl)ethyl]morpholin-2-yl}methyl)amino]-3-nitrophenyl}sulfonyl)benzamide] | < 0.01 nM | 
11 | CC1(C)CCC(CN2CCN(c3ccc(C(=O)NS(=O)(=O)c4ccc(NCC5CCOCC5)c([N+](=O)[O-])c4)c(Oc4cc(N)nc(Br)c4)c3)CC2)=C(c2ccc(Cl)cc2)C1 [Example 379, 2-[(2-amino-6-bromopyridin-4-yl)oxy]-4-(4-{[2-(4-chlorophenyl)-4,4-dimethylcyclohex-1-en-1-yl]methyl}piperazin-1-yl)-N-({3-nitro-4-[(tetrahydro-2H-pyran-4-ylmethyl)amino]phenyl}sulfonyl)benzamide] | 17.9 nM | 
12 | CC1(C)CCC(CN2CCN(c3ccc(C(=O)NS(=O)(=O)c4ccc(NCC5CCOCC5)c([N+](=O)[O-])c4)c(Oc4cc(N)nc(N)c4)c3)CC2)=C(c2ccc(Cl)cc2)C1 [Example 380, 4-(4-{[2-(4-chlorophenyl)-4,4-dimethylcyclohex-1-en-1-yl]methyl}piperazin-1-yl)-2-[(2,6-diaminopyridin-4-yl)oxy]-N-({3-nitro-4-[(tetrahydro-2H-pyran-4-ylmethyl)amino]phenyl}sulfonyl)benzamide] | 8.27 nM | 
13 | CC1(C)CCC(CN2CCN(c3ccc(C(=O)NS(=O)(=O)c4ccc(OCC5CCOCC5)c([N+](=O)[O-])c4)c(Oc4cnc(N)c(Cl)c4)c3)CC2)=C(c2ccc(Cl)cc2)C1 [Example 381, 2-[(6-amino-5-chloropyridin-3-yl)oxy]-4-(4-{[2-(4-chlorophenyl)-4,4-dimethylcyclohex-1-en-1-yl]methyl}piperazin-1-yl)-N-{[3-nitro-4-(tetrahydro-2H-pyran-4-ylmethoxy)phenyl]sulfonyl}benzamide] | 0.02 nM | 
14 | CC1(C)CCC(CN2CCN(c3ccc(C(=O)NS(=O)(=O)c4ccc(N[C@@H]5CCCN(C(CF)CF)C5)c([N+](=O)[O-])c4)c(Oc4cnc(N)c(Cl)c4)c3)CC2)=C(c2ccc(Cl)cc2)C1 [Example 382, 2-[(6-amino-5-chloropyridin-3-yl)oxy]-4-(4-{[2-(4-chlorophenyl)-4,4-dimethylcyclohex-1-en-1-yl]methyl}piperazin-1-yl)-N-{[4-({(3R)-1-[2-fluoro-1-(fluoromethyl)ethyl]piperidin-3-yl}amino)-3-nitrophenyl]sulfonyl}benzamide] | 0.114 nM | 
15 | CC1(C)CCC(CN2CCN(c3ccc(C(=O)NS(=O)(=O)c4ccc(NCC5CCOCC5)c([N+](=O)[O-])c4)c(Oc4cc(NC(=O)OC(C)(C)C)ncc4Br)c3)CC2)=C(c2ccc(Cl)cc2)C1 [Example 383, tert-butyl 5-bromo-4-(5-(4-{[2-(4-chlorophenyl)-4,4-dimethylcyclohex-1-en-1-yl]methyl}piperazin-1-yl)-2-{[({3-nitro-4-[(tetrahydro-2H-pyran-4-ylmethyl)amino]phenyl}sulfonyl)amino]carbonyl}phenoxy)pyridin-2-ylcarbamate] | 427 nM | 
16 | CC1(C)CCC(CN2CCN(c3ccc(C(=O)NS(=O)(=O)c4ccc(NCC5CCOCC5)c([N+](=O)[O-])c4)c(Oc4cnc5[nH]ccc5c4Cl)c3)CC2)=C(c2ccc(Cl)cc2)C1 [Example 384, 4-(4-{[2-(4-chlorophenyl)-4,4-dimethylcyclohex-1-en-1-yl]methyl}piperazin-1-yl)-2-[(4-chloro-1H-pyrrolo[2,3-b]pyridin-5-yl)oxy]-N-({3-nitro-4-[(tetrahydro-2H-pyran-4-ylmethyl)amino]phenyl}sulfonyl)benzamide] | 6.23 nM | 
17 | CC1(C)CCC(CN2CCN(c3ccc(C(=O)NS(=O)(=O)c4ccc(NCC5CCOCC5)c([N+](=O)[O-])c4)c(Oc4ccc(NCC(F)(F)F)nc4)c3)CC2)=C(c2ccc(Cl)cc2)C1 [Example 385, 4-(4-{[2-(4-chlorophenyl)-4,4-dimethylcyclohex-1-en-1-yl]methyl}piperazin-1-yl)-N-({3-nitro-4-[(tetrahydro-2H-pyran-4-ylmethyl)amino]phenyl}sulfonyl)-2-({6-[(2,2,2-trifluoroethyl)amino]pyridin-3-yl}oxy)benzamide] | 49.3 nM | 
18 | CC1(C)CCC(CN2CCN(c3ccc(C(=O)NS(=O)(=O)c4ccc(NCC5CCC(O)CC5)c([N+](=O)[O-])c4)c(Oc4cnc(N)c(Cl)c4)c3)CC2)=C(c2ccc(Cl)cc2)C1 (stereo not drawn) [Example 386, 2-[(6-amino-5-chloropyridin-3-yl)oxy]-4-(4-{[2-(4-chlorophenyl)-4,4-dimethylcyclohex-1-en-1-yl]methyl}piperazin-1-yl)-N-[(4-{[(4-hydroxycyclohexyl)methyl]amino}-3-nitrophenyl)sulfonyl]benzamide] | < 0.01 nM | 
